“Also recorded” adds a separate entry of the source.
Tests used:
NC/Nga mice [1] = test: BrdU uptake in auricular lymph node cells of NC/Nga mice (ELISA); format: in vivo; conditions: topical application for 5 weeks, BrdU i.p. on day 34, vs Vaseline
Source text: On day 12, day 19, day 26 and day 33 after starting application of Vaseline or fucoxanthin, 0.8% picryl chloride (PiCl) was further applied to the back skin of the mice. The behaviors of the mice were observed by video monitoring. On day 34 after starting application of Vaseline or fucoxanthin, bromodeoxyuridine (BrdU, Nacalai Tesque) ([…]) was intraperitoneally administered to the mice. At 5 weeks after starting application of Vaseline or fucoxanthin, the time each mouse spent for scratching behavior in 10 minutes was measured by video monitoring. Then, the mice were sacrificed and the auricular lymph node, blood and skin were obtained. Serum IgE content was determined by enzyme-linked immunosorbent assay (ELISA) using Mouse IgE Assay Kit (Morinaga Institute of Biological Science, Inc.). The auricular lymph node was digested with 0.1% trypsin/0.1% collagenase, the obtained dissociated cells were suspended by pipetting, and the enzyme reaction was stopped by adding Dulbecco's modified Eagle medium (DMEM) containing 10% fetal bovine serum (Wako Pure Chemical Industries, Ltd.). BrdU uptake was determined by ELISA using Cell Proliferation ELISA, BrdU (Colorimetric) (Roche Diagnostics K.K.).

NC/Nga mice [2] = test: Clinical symptoms of dermatitis in PiCl-sensitized NC/Nga mice; format: in vivo; conditions: topical application plus PiCl, at 5 weeks
Experimental: Next, we examined the effects of fucoxanthin and astaxanthin on clinical symptoms of dermatitis in NC/Nga mice. In the same manner as described in Example 2, fucoxanthin or astaxanthin and PiCl were applied to NC/Nga mice. […] In the same manner as described in Example 2, Vaseline, fucoxanthin or tacrolimus and PiCl were applied to NC/Nga mice. […] Also, serum IgE levels and swelling of the auricular lymph nodes of the mice were determined in the same manner as described in Example 2.

CC(=O)O[C@H]1CC(C)(C)C(=C=C/C(C)=C/C=C/C(C)=C/C=C/C=C(C)/C=C/C=C(\C)C(=O)C[C@@]23O[C@]2(C)C[C@@H](O)CC3(C)C)[C@](C)(O)C1 [fucoxanthin]
BrdU uptake (cell proliferation in the auricular lymph node) (NC/Nga mice [1]): not affected | clinical symptoms of dermatitis (AD symptoms) (NC/Nga mice [2]): remarkably improved; also recorded: almost completely did; also recorded: ameliorated clinical symptom of dermatitis

Source: patent US9566262B2, “Itch suppression by fucoxanthin” (THE RITSUMEIKAN TRUST, priority 2015, dated 2017)
